pIC50: −log10 of the molar value. ≈ marks a conversion by molar mass, not a printed value. Where two headings read alike, the source gives them in different places.
Key:
[1] = Plasma protein binding, mouse plasma; format: in vitro ADME; conditions: mouse, plasma
in vitro [2] = conditions: mouse, plasma
[3] = molecular target: T1, recombinant human CD73 (hCD73) (Homo sapiens, UniProt P21589); experiment: CD73 activity assay on recombinant human CD73; format: biochemical; conditions: ΔGexp = RT ln Ki
T1 sequence (P21589 27-574): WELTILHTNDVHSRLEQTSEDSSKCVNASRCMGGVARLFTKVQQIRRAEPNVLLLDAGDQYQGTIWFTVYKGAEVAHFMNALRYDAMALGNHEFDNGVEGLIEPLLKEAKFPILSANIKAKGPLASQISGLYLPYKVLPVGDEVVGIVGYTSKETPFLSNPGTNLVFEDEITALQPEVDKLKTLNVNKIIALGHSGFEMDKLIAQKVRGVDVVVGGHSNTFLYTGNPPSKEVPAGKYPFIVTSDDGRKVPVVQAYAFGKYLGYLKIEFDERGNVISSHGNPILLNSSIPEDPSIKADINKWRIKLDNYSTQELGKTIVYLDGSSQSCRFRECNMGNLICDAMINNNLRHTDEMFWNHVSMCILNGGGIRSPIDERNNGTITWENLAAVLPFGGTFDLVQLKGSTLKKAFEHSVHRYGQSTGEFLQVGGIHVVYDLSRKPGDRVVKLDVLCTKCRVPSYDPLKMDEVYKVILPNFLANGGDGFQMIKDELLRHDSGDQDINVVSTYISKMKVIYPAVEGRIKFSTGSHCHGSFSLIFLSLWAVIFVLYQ

[4] = Microsomal stability assay, mouse liver microsomes; format: in vitro ADME; conditions: for Mics (m) comp remaining 60 min: 10 μM; for microsomal CLint at 10 µM: pooled liver microsomes, pH 7.4, read-out: Mics (m) CLint
[5] = Plasma protein binding, equilibrium dialysis, human plasma; format: in vitro ADME; conditions: undiluted plasma
[6] = Microsomal stability assay, human liver microsomes; format: in vitro ADME; conditions: for Mics (hu) comp remaining 60 min: 10 μM; for microsomal CLint at 10 µM: pooled liver microsomes, pH 7.4, read-out: Mics (hu) CLint
in vitro [7] = conditions: human, plasma
[8] = Kinetic solubility in PBS; format: physicochemical; conditions: phosphate-buffered saline, pH 7.4, aqueous buffer, kinetic from dmso stock
Summary of the method: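 Echo-MS quantitation with calibration from 0.05 to 4 μM, after 1:99 dilution of filtrate into 50% acetonitrile. Filtrate came from a 100 μM PBS (pH 7.4) solution equilibrated 2 h at room temperature with shaking, in duplicate.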

[9] = system: nonmalignant human dermal fibroblasts (NHDF); experiment: In vitro cytotoxic activity; format: cell-based
Description: (§1) All the compounds were also tested for their in vitro cytotoxic activity on a small panel of four cancer cell lines (CCRF-CEM, HepG2, HeLa S3, HL-60) and nonmalignant human dermal fibroblasts (NHDF).

HeLa S3 = experiment: In vitro cytotoxic activity; format: cell-based; conditions: Homo sapiens
Description: as §1

CCRF-CEM = experiment: In vitro cytotoxic activity; format: cell-based; conditions: Homo sapiens
Description: as §1

HL-60 = experiment: In vitro cytotoxic activity; format: cell-based; conditions: Homo sapiens
Description: as §1

HepG2 = experiment: In vitro cytotoxic activity; format: cell-based; conditions: Homo sapiens
Description: as §1

[10] = In vivo pharmacokinetic study, intravenous; set-up: species or system male CD-1 mice; conditions: plasma, 1 mg/kg; for half-life: footnote: t1/2 stability in plasma, text: half-life in mouse PK
Description: The pharmacokinetic study was performed by Bienta (Enamine Biology Services) using male CD-1 mice (3 animals, 9 weeks old, body weight ranging from 29.2 to 33.7 g) following intravenous administration. Levels of the test compound were determined by LC-MS/MS in blood plasma over time (seven sampling time points: 5, 15, 30, 60, 120, 240, and 480 min) after a single dose.
Animal treatment and samples preparation were conducted by the Animal Laboratory personnel at Enamine/Bienta.

[11] = Tables 2 and 4, mouse plasma, read-out: fup, fraction unbound in mouse plasma
[12] = mouse plasma protein binding, read-out: PPB (m) (converted)
[13] = human plasma protein binding, read-out: PPB (hu) (converted)
[14] = male, CD-1, mouse, iv, intravenous
[15] = mouse, male CD-1 mice, intravenous, single dose, read-out: Cl (obs), observed clearance
[16] = Tables 1 and 3, human plasma as printed in footnote, read-out: fup, fraction unbound in human plasma

fraction unbound at 4 h, 100 µM [1, 11] | fraction unbound at 4 h, 100 µM [1, 12] | half-life at 10 µM (in vitro [2]) [h] | dG_exp, experimental binding free energy [3] | Mics (m) comp remaining 60 min [4] [%] | microsomal CLint at 10 µM [4] [µL/min/mg] | fraction unbound at 4 h, 100 µM [5, 13] | Mics (hu) comp remaining 60 min [6] [%] | microsomal CLint at 10 µM [6] [µL/min/mg] | half-life at 10 µM (in vitro [7]) [h] | solubility at 2 h [8] [µM] | half-life [10, 14] [h] | clearance [10, 15] [mL/min/kg] | fraction unbound at 4 h, 100 µM [5, 16] | clearance ([10]; male, CD-1, mouse, iv, in vivo PK in mice, unit inferred, read-out: clearance) [mL/min/kg] | SMILES | pIC50 [9] | pIC50 (HeLa S3) | pIC50 (CCRF-CEM) | pIC50 (HL-60) | pIC50 (HepG2)
0.23 | 0.235 | > 2 | –15.1 kcal/mol | 116 | < 1 | 0.023 | 99 | < 1 | > 2 | 84 (≈ 46.8 µg/mL) | 2.25 | 1.4 |  |  | O=P(O)(O)CP(=O)(O)OC[C@H]1O[C@@H](n2ccc3c(-c4cccc5c4CCCC5)nc(F)nc32)[C@H](O)[C@@H]1O [14D.12] | < 5.00 | < 5.00 | < 5.00 | < 5.00 | < 5.00
 | 0.8 | > 2 | –14.3 kcal/mol | 79 | 9 | 0.257 |  | < 1 | > 2 | > 100 | 2.15 | 7.2 | 0.8 |  | O=P(O)(O)CP(=O)(O)OC[C@H]1O[C@@H](n2ccc3c(-c4ccnc5ccccc45)ncnc32)[C@H](O)[C@@H]1O [4A.17] | < 5.00 | < 5.00 | < 5.00 | < 5.00 | < 5.00
0.23 | 0.234 | > 2 | –14.6 kcal/mol | 112 | < 2 | ≤ 0.01 | 132 | < 2 | > 2 | 85 (≈ 53.4 µg/mL) | 0.138 | 7.2 |  |  | COC(=O)c1ccc2cc(-c3nc(Cl)nc4c3ccn4[C@@H]3O[C@H](COP(=O)(O)CP(=O)(O)O)[C@@H](O)[C@H]3O)ccc2c1 [7B.29] | < 5.00 | < 5.00 | < 5.00 | < 5.00 | < 5.00
 | 0.381 | > 2 | –15.1 kcal/mol | 100 | < 1 | 0.073 | 96 | 1 | > 2 | 94 (≈ 50.7 µg/mL) | 2.17 |  | 0.38 | 2.1 | O=P(O)(O)CP(=O)(O)OC[C@H]1O[C@@H](n2ccc3c(-c4cccc5c4CCCC5)ncnc32)[C@H](O)[C@@H]1O [4A.12] | < 5.00 | < 5.00 | < 5.00 | < 5.00 | < 5.00
0.3 | 0.302 | > 2 | –14.7 kcal/mol | 103 | < 1 | 0.026 | 95 | 2 | > 2 | 86 (≈ 46.4 µg/mL) | 0.25 | 7.4 |  |  | Cc1nc(-c2cc3ccccc3o2)c2ccn([C@@H]3O[C@H](COP(=O)(O)CP(=O)(O)O)[C@@H](O)[C@H]3O)c2n1 [18E.8] | < 5.00 | < 5.00 | < 5.00 | < 5.00 | < 5.00
0.56 | 0.564 | > 2 | –13.9 kcal/mol | 102 | < 1 | 0.067 | 92 | 3 | > 2 | > 100 | 2.78 | 2.3 |  |  | Nc1nc(-c2cccc3ccccc23)c2ccn([C@@H]3O[C@H](COP(=O)(O)CP(=O)(O)O)[C@@H](O)[C@H]3O)c2n1 [11C.6] | < 5.00 | < 5.00 | < 5.00 | < 5.00 | < 5.00
0.92 | 0.818 | > 2 | –15.2 kcal/mol | 106 | < 1 | 0.098 | 98 | 2 | > 2 | > 100 | 0.105 | 8.3 |  |  | O=P(O)(O)CP(=O)(O)OC[C@H]1O[C@@H](n2ccc3c(-c4ccco4)nc(Cl)nc32)[C@H](O)[C@@H]1O [7B.1, [(5-{[2-Chloro-4-(furan-2-yl)-7H-pyrrolo[2,3-d]pyrimidin-7-yl]-β-D-ribofuranosyl}oxy)phosphonomethyl]phosphonic Acid] | < 5.00 | < 5.00 | 5.06 | 5.25 | < 5.00
0.42 |  | > 2 | –14.4 kcal/mol | 111 | < 1 | 0.033 | 100 | < 1 | > 2 | 89 (≈ 49.3 µg/mL) | 2.3 | 1.3 |  |  | O=P(O)(O)CP(=O)(O)OC[C@H]1O[C@@H](n2ccc3c(-c4cccc5ccccc45)nc(F)nc32)[C@H](O)[C@@H]1O [14D.6] | < 5.00 | < 5.00 | < 5.00 | < 5.00 | < 5.00
0.02 | 0.016 | > 2 | –15.7 kcal/mol | 113 | < 2 | ≤ 0.01 | 117 | < 2 | > 2 | 71 (≈ 47.3 µg/mL) | 1.67 | 1.1 |  |  | O=P(O)(O)CP(=O)(O)OC[C@H]1O[C@@H](n2ccc3c(-c4cc(Br)c5ccccc5c4F)nc(Cl)nc32)[C@H](O)[C@@H]1O [7B.26] | < 5.00 | < 5.00 | < 5.00 | < 5.00 | < 5.00
0.04 | 0.036 | > 2 | –15.3 kcal/mol | 140 | < 2 | ≤ 0.01 | 148 | < 2 | > 2 | 89 (≈ 53.8 µg/mL) | 2.43 | 6.7 |  |  | O=P(O)(O)CP(=O)(O)OC[C@H]1O[C@@H](n2ccc3c(-c4ccc5cc(Cl)ccc5c4)nc(Cl)nc32)[C@H](O)[C@@H]1O [7B.27] | < 5.00 | < 5.00 | < 5.00 | < 5.00 | < 5.00
